From PubChem BioAssay AID328 (DTP/NCI, 2004)
Values joined by “and” are separate entries in the source; they are usually repeats but may differ in a detail not shown here. Identical values can stand only once. Inconclusive results and toxic doses are left out. Rule for the calls: active = survival T/C of 150% or more; inactive = T/C below 125% in these data.

Experiments:
[1] = system: BDF1 mice, P388 leukemia ip, median survival T/C; assay: NCI In Vivo Anticancer Drug Screen. Data for tumor model P388 Leukemia (intraperitoneal) in B6D2F1 (BDF1) mice; conditions: endpoint: median survival time, higher = longer survival
Summary of the method: (§1)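 Each value expresses how treatment altered survival: treated-mouse outcome over vehicle-mouse outcome, both groups bearing the transplanted tumour.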

[2] = system: BDF1 mice, P388 leukemia ip; assay: as above; conditions: endpoint: mean survival time, schedule: Q01DX010 (ip), vehicle: carboxymethylcellulose (CMC), higher = longer survival
Summary of the method: as §1

[3] = dose: 100.0 mg/kg/injection, schedule: Q01DX009 (ip), vehicle: saline with Tween-80
[4] = dose: 200.0 mg/kg/injection, schedule: Q01DX009 (ip), vehicle: saline with Tween-80
[5] = dose: 25.0 mg/kg/injection, schedule: Q04DX003 (ip), vehicle: Klucel (hydroxypropylcellulose) (HPC)
[6] = dose: 50.0 mg/kg/injection, schedule: Q01DX009 (ip), vehicle: Klucel (hydroxypropylcellulose) (HPC)
[7] = dose: 50.0 mg/kg/injection, schedule: Q04DX003 (ip), vehicle: Klucel (hydroxypropylcellulose) (HPC)
[8] = dose: 100.0 mg/kg/injection, schedule: Q01DX009 (ip), vehicle: Klucel (hydroxypropylcellulose) (HPC)
[9] = dose: 100.0 mg/kg/injection, schedule: Q04DX003 (ip), vehicle: Klucel (hydroxypropylcellulose) (HPC)
[10] = dose: 200.0 mg/kg/injection, schedule: Q04DX003 (ip), vehicle: Klucel (hydroxypropylcellulose) (HPC)

Measured: T/C

CC(C)(O)CCC(=O)C(C)(O)C1C(O)CC2(C)C3CC=C4C(CC(O)C(=O)C4(C)C)C3(C)C(=O)CC12C (configuration not stated)
inactive: [1]; dose: 1.0 mg/kg/injection, schedule: Q01DX010 (ip), vehicle: carboxymethylcellulose (CMC) 121 % of control | [1]; dose: 2.0 mg/kg/injection, schedule: Q01DX010 (ip), vehicle: carboxymethylcellulose (CMC) 121 % of control | [1]; dose: 4.0 mg/kg/injection, schedule: Q01DX010 (ip), vehicle: carboxymethylcellulose (CMC) 121 % of control | [2]; dose: 1.0 mg/kg/injection 97 % of control | [2]; dose: 2.0 mg/kg/injection 86 % of control

CC(C)=CC(=O)C1C(=O)c2ccccc2C1=O
inactive: [2]; dose: 25.0 mg/kg/injection 93 % of control | [2]; dose: 50.0 mg/kg/injection 101 % of control | [2]; dose: 100.0 mg/kg/injection 101 % of control | [2]; dose: 200.0 mg/kg/injection 96 % of control

Cc1cccc(NNC(=S)Nc2ccccc2)c1
inactive: [1]; [3] 104 % of control | [1]; [4] 95 % of control | [1]; dose: 400.0 mg/kg/injection, schedule: Q01DX009 (ip), vehicle: saline with Tween-80 104 % of control

CCCCCCCCCCC(O)CCCCCCCCCC
inactive: [1]; dose: 50.0 mg/kg/injection, schedule: Q01DX009 (ip), vehicle: saline with Tween-80 100 % of control | [1]; [3] 95 % of control | [1]; [4] 90 % of control

CCOC(=O)c1ccc(C(=O)OCC)c(Cl)n1
inactive: [1]; dose: 25.0 mg/kg/injection, schedule: Q01DX009 (ip), vehicle: Klucel (hydroxypropylcellulose) (HPC) 112 % of control | [1]; [5] 95 % of control | [1]; [6] 95 % of control | [1]; [7] 100 % of control | [1]; [8] 87 % of control | [1]; [9] 86 % of control and 91 % of control

Cc1nnc2n1N=C(c1ccc(-c3ccccc3)cc1)CS2
inactive: [1]; dose: 100.0 mg/kg/injection, schedule: Q04DX003 (ip), vehicle: saline with Tween-80 104 % of control | [1]; dose: 200.0 mg/kg/injection, schedule: Q04DX003 (ip), vehicle: saline with Tween-80 92 % of control | [1]; dose: 400.0 mg/kg/injection, schedule: Q04DX003 (ip), vehicle: saline with Tween-80 93 % of control

COC(OC)c1cc(S)[nH]c(=O)c1F
inactive: [1]; [9] 100 % of control | [1]; [10] 110 % of control | [1]; dose: 400.0 mg/kg/injection, schedule: Q04DX003 (ip), vehicle: Klucel (hydroxypropylcellulose) (HPC) 100 % of control

CC(C)C1C(=O)N2CCCC2C2(O)OC(NC(=O)C3C=C4c5cccc6[nH]cc(c56)CC4N(C)C3)(C(C)C)C(=O)N12 (configuration not stated)
inactive: [1]; dose: 12.5 mg/kg/injection, schedule: Q01DX009 (ip), vehicle: Klucel (hydroxypropylcellulose) (HPC) 109 % of control | [1]; dose: 25.0 mg/kg/injection, schedule: Q01DX009 (ip), vehicle: saline 115 % of control | [1]; [5] 91 % of control | [1]; [6] 109 % of control | [1]; dose: 50.0 mg/kg/injection, schedule: Q01DX009 (ip), vehicle: saline 110 % of control | [1]; [7] 91 % of control | [1]; [8] 118 % of control | [1]; dose: 100.0 mg/kg/injection, schedule: Q01DX009 (ip), vehicle: saline 109 % of control and 120 % of control | [1]; [9] 104 % of control | [1]; [10] 100 % of control | [1]; dose: 200.0 mg/kg/injection, schedule: Q04DX003 (ip), vehicle: saline 120 % of control | [1]; dose: 400.0 mg/kg/injection, schedule: Q04DX003 (ip), vehicle: saline 100 % of control

C(=Nc1ccc2c(c1)Cc1ccccc1-2)c1ccccc1
inactive: [1]; [6] 90 % of control | [1]; [8] 109 % of control | [1]; dose: 200.0 mg/kg/injection, schedule: Q01DX009 (ip), vehicle: Klucel (hydroxypropylcellulose) (HPC) 100 % of control
